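Compound exposure: 48 hours, 5 concentrations, 96-well plates. Abbreviation: GI50, concentration required for 50% inhibition of growth.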 Activity calls are given as the source filed them. Cut-off read from the data, not from the text of the source: active = GI50 up to about 1.1 µM and inactive = higher.
Experiments:
Experiment in all cases: NCI-60 cell line screen, 48 h
UACC-62 = tested on: UACC-62
HL-60 = tested on: HL-60
CCRF-CEM = tested on: CCRF-CEM
TK-10 = tested on: TK-10
DU-145 = tested on: DU-145
HCT-116 = tested on: HCT-116
NCI-H23 = tested on: NCI-H23
OVCAR-5 = tested on: OVCAR-5
BT-549 = tested on: BT-549
MDA-N = tested on: MDA-N
Hs-578T = tested on: Hs-578T
IGROV-1 = tested on: IGROV-1
COLO 205 = tested on: COLO 205
ACHN = tested on: ACHN
M14 = tested on: M14
SN12C = tested on: SN12C
NCI/ADR-RES = tested on: NCI/ADR-RES
NCI-H226 = tested on: NCI-H226
NCI-H522 = tested on: NCI-H522
SW-620 = tested on: SW-620

Measured: GI50

CC(=O)OCC1OC(n2c3c(cc(C#N)c2=O)CCCCCC3)C(OC(C)=O)C(OC(C)=O)C1OC(C)=O (stereo not given)
inactive: UACC-62 > 100 µM | HL-60 > 100 µM | CCRF-CEM > 100 µM | TK-10 > 100 µM | DU-145 > 100 µM | HCT-116 > 100 µM | NCI-H23 > 100 µM | OVCAR-5 > 100 µM | BT-549 > 100 µM | MDA-N > 100 µM | Hs-578T > 100 µM | IGROV-1 > 100 µM | COLO 205 > 100 µM | ACHN > 100 µM | M14 > 100 µM | SN12C > 100 µM | NCI/ADR-RES > 100 µM | NCI-H226 > 100 µM | NCI-H522 > 100 µM

C=C1CN2CC(=C)CN(C1)CS(=O)(=O)N1CC(=C)CN(CC(=C)C1)S(=O)(=O)N1CC(=C)CN(CC(=C)C1)S(=O)(=O)C2
inactive: UACC-62 93.3 µM | HL-60 35 µM | TK-10 22.1 µM | DU-145 38.3 µM | HCT-116 51.3 µM | SW-620 71.8 µM | NCI-H23 78.7 µM | OVCAR-5 56.8 µM | BT-549 78.5 µM | MDA-N 52.5 µM | Hs-578T 25.4 µM | IGROV-1 59.8 µM | COLO 205 34 µM | ACHN 47.1 µM | M14 37.6 µM | SN12C 43.4 µM | NCI/ADR-RES > 100 µM | NCI-H226 27.7 µM | NCI-H522 32.4 µM

NC(=O)c1cc2ccccc2o/c1=N/O
inactive: UACC-62 35.8 µM | HL-60 75.2 µM | CCRF-CEM > 100 µM | TK-10 > 100 µM | DU-145 > 100 µM | HCT-116 > 100 µM | SW-620 > 100 µM | NCI-H23 > 100 µM | BT-549 > 100 µM | MDA-N > 100 µM | Hs-578T 26.2 µM | IGROV-1 66.1 µM | COLO 205 > 100 µM | ACHN > 100 µM | M14 > 100 µM | SN12C > 100 µM | NCI/ADR-RES > 100 µM | NCI-H226 > 100 µM | NCI-H522 61.4 µM

CC(=O)N1N=C(c2ccc3ccccc3c2O)CC1C(=O)c1ccco1 (stereo not given)
inactive: UACC-62 17 µM | CCRF-CEM 6.24 µM | TK-10 30.3 µM | DU-145 47.9 µM | HCT-116 28.6 µM | SW-620 33.3 µM | NCI-H23 27.9 µM | OVCAR-5 28.6 µM | BT-549 30.3 µM | MDA-N 20.6 µM | Hs-578T 21.8 µM | IGROV-1 12.7 µM | COLO 205 25.8 µM | ACHN 19.2 µM | M14 19.3 µM | SN12C 41.2 µM | NCI/ADR-RES 18.1 µM | NCI-H226 33.7 µM | NCI-H522 17.9 µM

COc1cc2cc(C(=O)N3CC(CCl)c4c3cc([N+](=O)[O-])c3ccccc43)[nH]c2c(OC)c1OC (stereo not given)
inactive: UACC-62 15.9 µM | CCRF-CEM 11.6 µM | TK-10 > 100 µM | DU-145 12.5 µM | HCT-116 27 µM | SW-620 > 100 µM | NCI-H23 27.2 µM | OVCAR-5 25.6 µM | BT-549 > 100 µM | MDA-N > 100 µM | Hs-578T > 45.1 µM | IGROV-1 33 µM | COLO 205 > 76 µM | ACHN 11.2 µM | M14 46.6 µM | SN12C 79.6 µM | NCI/ADR-RES 9.06 µM | NCI-H226 > 100 µM | NCI-H522 24.7 µM

— ChEMBL document CHEMBL1201862, “PubChem BioAssay data set” (2004)
